The text below walks through data of patent US6679922B1, “Pesticide protective articles” (priority 1998, dated 2004).

Where “and” joins values, the source holds several entries; their conditions need not be identical. Identical values can stand only once.

The nature of data set [1]: Pesticide reduction at various pesticide/chlorine ratios. Conditions: Pesticide/Chlorine Ratio 1:4. The source says:
In certain aspects, the concentration of the pesticide (e.g., methomyl) that was exposed to the fabric was proportional to the percent reduction of the pesticide. Without being bound by a particular theory, it is believed that the pesticide/halamine ratio is more critical to reduction than the actual contact time of the pesticide with the fabric. A pesticide to halamine ratio of about 10:1 to about 1:10 is suitable for the present methods, preferably, a ratio of about 5:1 to about 1:5 is used and, more preferably, a ratio of about […] is used.

Data set [2] is described as follows: Detoxification of pesticides on cotton/polyester fabrics treated with DMDMH and chlorine bleach, percentage reduction by GC. The note with it: 6% DMDMH, 5 min contact. As to the method: Polyester/cotton fabrics were washed in a domestic washing machine at 50° C. prior to the actual treatment of the functional compounds.
The grafting of hydantoin ring onto the cotton/polyester fabrics was carried out using a wet finishing process. The weighed fabrics were submerged into an aqueous 6% (w/w) DMDMH solution for 5 min. and then wringed through a padder to secure a wet pickup of 70-100% through a 2 dip-2 nip cycle. These wet fabrics were then oven-dried at 85° C. for 5 min. and cured at 150° C. for 5 min. Following this, the fabrics were washed in water at 50° C. for 30 min. to remove any excess chemicals on the surface of the fabrics.
After the wet finishing process, the treated fabrics were bleached with solutions containing 0.01% and 0.1% (w/v) active chlorine content. The treated fabrics were submerged into aqueous bleach solution at one of the specified concentrations at 25° C. for 15 min. Then, the fabrics were air dried and stored at standard condition (25° C., 65% relative humidity). The chemically finished fabrics were then cut into 3×3 inches square swatches for exposure to pesticides in the subsequent testing.
Methomyl and aldicarb were dissolved in methanol at three different concentrations: 250, 500 and 1000 ppm. One mL of one of these pesticide solutions was directly loaded onto a fabric swatch. A contact time of 5 min. was allowed before the exposed fabric was extracted in organic solvent for detoxification assessment and degradation analysis. Fabrics that were not treated with DMDMH and bleach were also used as control samples.
The extraction of the exposed swatches was done by soaking a swatch into an initial volume of 50 mL ethyl acetate for 15 min. with vigorous agitation. The extraction was repeated with another 50 mL of ethyl acetate; the combined 100 mL of the extracted solvent was reduced to 2 mL in volume by rotor-evaporation under partial vacuum at 40° C. To this 2-mL sample, 1 μL of 2-ethyl-5-methyl pyridine was added as an internal standard for quantitation during the chromatographic analysis. After which, 1 μL of the extracted sample was injected into a gas chromatograph.
Gas chromatography was performed on a Hewlett Packard 5890 series II GC, equipped with a nitrogen-phosphorus detector (NPD), using a 15 m×0.25 mm I.D. DB-1 column, 0.25 μm film (J&W Co.). The temperature program was initially set at 100° C. for 3 min., raised at a rate of 7° C./min. to 250° C. and held for 5 min. The injector and detector were set at 250° C. and 280° C. respectively. Helium was used as the carrier gas at a flow rate of 0.84 mL/min; hydrogen flow rate was 2.98 mL/min; nitrogen flow rate was 29.16 mL/min. A split injection was used at a split ratio of 25:1. The responses of the resulting peak areas and relative peak areas were integrated and recorded using a HP 3396 II integrator. For each sample, at least three or more repetitions at each condition were carried out.
Using the materials and methods sets forth above, three different concentrations of methomyl were detoxified by halamine structures on the fabrics. Relative peak area response factors (peak area response of pesticide divided by peak area response of internal standard) of the control fabrics were used to determine the original amount of pesticide on the fabrics at 0% reduction. […] After this difference was divided by the original amount, it was expressed as the percentage reduction of pesticide at those various concentrations.

The test system of another data set is male rats. Conditions: cited from earlier work.
The conditions of data set [3]: cited from earlier work.
The conditions of data set [4]: chlorine/methomyl ratio of 10 to 1; cited from earlier work.

`CNC(=O)Oc1cccc2ccccc12` [Carbaryl]: the “Pesticide Reduction (%)” value in data set [1] is given as 8.02%.
`CNC(=O)Oc1cccc2c1OC(C)(C)C2` [Carbofuran]: the “Pesticide Reduction (%)” value in data set [1] turned out to be 13.82%.
For the molecule `CNC(=O)ON=C(C)SC` [Methomyl, S-methyl N-(methyl carbamoyloxy) thioacetimidatel], the “percentage reduction of pesticide” value in data set [2] (250 ppm pesticide, 0.01% active chlorine treatment) is 9.35% and 9.4%; in data set [2] (250 ppm pesticide, 0.1% active chlorine treatment) it was 19.9%; in data set [2] (500 ppm pesticide, 0.1% active chlorine treatment) it was 18.6%; in data set [2] (1000 ppm pesticide, 0.01% active chlorine treatment) it was 4.43% and 4.4%; in data set [2] (1000 ppm pesticide, 0.1% active chlorine treatment), 11.63% and 11.6%. Moreover, the “Toxicity, mg/kg (LD50, male rats)” value in the data set on male rats was 21 mg/kg. Moreover, in data set [3], the “Vapor Pressure mm Hg (25-30° C.)” value is reported as 5 × 10^−5 mm Hg. Further, the “disappearance in aqueous solution” value in data set [4] is listed as “disappear rapidly”. In addition, the “Pesticide Reduction (%)” value in data set [1] is listed as 79.52%.
